According to publication PMC7265341, “Quantifying CDK inhibitor selectivity in live cells” (Nature Communications, 2020):
Where two headings read alike, the source gives them in different places.

Tests used:
[1] = target: CDK19/Cyclin C (Homo sapiens, UniProt Q9BWU1); test: NanoBRET live-cell target engagement, NanoLuc-CDK19/Cyclin C in HEK-293; details: 10µM
[2] = target: CDK3/Cyclin E1 (Homo sapiens, UniProt Q00526); test: NanoBRET live-cell target engagement, CDK3-NanoLuc/Cyclin E1 in HEK-293; format: binding
[3] = target: CDK9/Cyclin K (Homo sapiens, UniProt P50750); test: NanoBRET live-cell target engagement, NanoLuc-CDK9/Cyclin K in HEK-293; format: binding; details: 10µM
[4] = target: CDK5/CDK5R1 (Homo sapiens, UniProt Q00535); test: NanoBRET live-cell target engagement, CDK5-NanoLuc/CDK5R1 in HEK-293; format: binding; details: 10µM
[5] = target: CDK1/Cyclin E1 (Homo sapiens, UniProt P06493); test: NanoBRET live-cell target engagement, CDK1-NanoLuc/Cyclin E1 in HEK-293; format: binding; details: 10µM
Sequence of CDK1/Cyclin E1 (P06493 whole entry): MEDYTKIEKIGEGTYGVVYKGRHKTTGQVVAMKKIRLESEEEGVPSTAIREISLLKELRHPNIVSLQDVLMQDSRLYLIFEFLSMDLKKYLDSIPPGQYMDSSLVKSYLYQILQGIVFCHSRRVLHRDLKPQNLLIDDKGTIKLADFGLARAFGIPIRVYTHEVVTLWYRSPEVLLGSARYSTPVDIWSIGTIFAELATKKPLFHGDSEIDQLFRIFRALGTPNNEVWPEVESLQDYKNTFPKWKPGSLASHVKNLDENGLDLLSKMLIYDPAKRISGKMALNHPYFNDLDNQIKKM
Sequence of CDK1/Cyclin E1 (P24864 whole entry partner): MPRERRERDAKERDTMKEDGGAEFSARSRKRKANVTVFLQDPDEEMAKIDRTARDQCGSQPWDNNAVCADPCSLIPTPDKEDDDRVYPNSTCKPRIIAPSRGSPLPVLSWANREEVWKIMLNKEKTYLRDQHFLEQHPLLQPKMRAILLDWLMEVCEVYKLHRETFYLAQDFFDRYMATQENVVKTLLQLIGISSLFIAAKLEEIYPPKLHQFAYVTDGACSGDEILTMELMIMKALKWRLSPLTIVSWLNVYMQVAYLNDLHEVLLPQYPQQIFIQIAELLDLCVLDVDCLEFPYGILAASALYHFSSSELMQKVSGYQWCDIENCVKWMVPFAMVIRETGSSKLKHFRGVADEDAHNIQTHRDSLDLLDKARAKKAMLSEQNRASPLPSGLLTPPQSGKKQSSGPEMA

[6] = target: CDK12/Cyclin K (Homo sapiens, UniProt Q9NYV4); test: NanoBRET live-cell target engagement, CDK12-NanoLuc/Cyclin K in HEK-293; format: binding; details: 10µM
[7] = target: CDK10/Cyclin L2 (Homo sapiens, UniProt Q15131); test: NanoBRET live-cell target engagement, CDK10-NanoLuc/Cyclin L2 in HEK-293; details: 10µM
Sequence of CDK10/Cyclin L2 (Q15131 whole entry): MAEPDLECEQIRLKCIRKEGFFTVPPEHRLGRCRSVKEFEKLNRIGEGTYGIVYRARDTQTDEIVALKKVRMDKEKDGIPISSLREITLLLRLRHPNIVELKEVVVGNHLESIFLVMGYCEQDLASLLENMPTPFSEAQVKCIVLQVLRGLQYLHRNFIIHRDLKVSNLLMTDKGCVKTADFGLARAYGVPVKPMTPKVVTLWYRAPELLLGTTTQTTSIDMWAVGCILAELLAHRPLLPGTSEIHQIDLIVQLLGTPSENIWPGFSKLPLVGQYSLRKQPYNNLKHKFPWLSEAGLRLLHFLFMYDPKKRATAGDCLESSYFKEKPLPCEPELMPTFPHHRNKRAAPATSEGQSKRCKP

[8] = target: CDK7 (Homo sapiens, UniProt P50613); test: NanoBRET live-cell target engagement, NanoLuc-CDK7 in HEK-293; format: binding; details: 10µM
[9] = target: CDK15/Cyclin Y (Homo sapiens, UniProt Q96Q40); test: NanoBRET live-cell target engagement, NanoLuc-CDK15/Cyclin Y in HEK-293; format: binding; details: 10µM
Sequence of CDK15/Cyclin Y (Q96Q40 whole entry): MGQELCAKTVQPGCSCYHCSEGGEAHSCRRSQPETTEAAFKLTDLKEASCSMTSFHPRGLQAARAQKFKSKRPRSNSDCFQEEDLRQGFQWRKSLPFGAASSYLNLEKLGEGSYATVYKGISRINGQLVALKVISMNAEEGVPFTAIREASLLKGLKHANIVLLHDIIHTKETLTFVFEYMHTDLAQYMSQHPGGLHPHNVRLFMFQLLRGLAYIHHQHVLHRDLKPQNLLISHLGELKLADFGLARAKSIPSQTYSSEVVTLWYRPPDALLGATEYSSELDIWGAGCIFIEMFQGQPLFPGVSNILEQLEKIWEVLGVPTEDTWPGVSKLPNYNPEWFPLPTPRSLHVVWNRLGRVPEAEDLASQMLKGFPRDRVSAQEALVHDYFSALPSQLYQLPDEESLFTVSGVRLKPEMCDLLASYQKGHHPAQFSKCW
Sequence of CDK15/Cyclin Y (Q8ND76 whole entry partner): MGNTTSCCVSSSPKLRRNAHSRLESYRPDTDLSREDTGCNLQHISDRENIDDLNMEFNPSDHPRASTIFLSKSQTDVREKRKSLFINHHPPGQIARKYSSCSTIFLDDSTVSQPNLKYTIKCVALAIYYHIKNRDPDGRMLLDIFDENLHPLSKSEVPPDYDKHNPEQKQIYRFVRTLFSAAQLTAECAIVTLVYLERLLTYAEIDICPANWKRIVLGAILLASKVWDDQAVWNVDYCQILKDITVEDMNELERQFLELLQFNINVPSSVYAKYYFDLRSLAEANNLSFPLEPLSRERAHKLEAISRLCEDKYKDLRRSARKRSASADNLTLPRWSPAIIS

[10] = target: CDK18/Cyclin Y (Homo sapiens, UniProt Q07002); test: NanoBRET live-cell target engagement, CDK18-NanoLuc/Cyclin Y in HEK-293; format: binding; details: 10µM
Sequence of CDK18/Cyclin Y (Q07002 whole entry): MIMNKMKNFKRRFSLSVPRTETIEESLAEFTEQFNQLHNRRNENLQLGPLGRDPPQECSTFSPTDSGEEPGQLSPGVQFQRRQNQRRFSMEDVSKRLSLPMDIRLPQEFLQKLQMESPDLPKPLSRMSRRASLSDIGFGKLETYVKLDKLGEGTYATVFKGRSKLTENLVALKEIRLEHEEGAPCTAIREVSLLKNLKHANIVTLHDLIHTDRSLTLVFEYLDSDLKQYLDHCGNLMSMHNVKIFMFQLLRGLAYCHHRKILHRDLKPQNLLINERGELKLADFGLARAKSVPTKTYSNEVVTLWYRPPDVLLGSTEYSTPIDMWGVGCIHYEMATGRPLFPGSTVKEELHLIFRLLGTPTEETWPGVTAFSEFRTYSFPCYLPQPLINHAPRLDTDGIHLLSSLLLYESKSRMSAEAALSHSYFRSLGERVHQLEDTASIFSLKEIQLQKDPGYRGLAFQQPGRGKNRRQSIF
Sequence of CDK18/Cyclin Y (Q8ND76 whole entry partner): as the sequence (Q8ND76 whole entry partner) above

[11] = target: CDK20/Cyclin H (Homo sapiens, UniProt Q8IZL9); test: NanoBRET live-cell target engagement, NanoLuc-CDK20/Cyclin H in HEK-293; format: binding; details: 10µM
[12] = target: CDK16/Cyclin Y (Homo sapiens, UniProt Q00536); test: NanoBRET live-cell target engagement, CDK16-NanoLuc/Cyclin Y in HEK-293; format: binding; details: 10µM
[13] = target: CDK6/Cyclin D1 (Homo sapiens, UniProt Q00534); test: NanoBRET live-cell target engagement, NanoLuc-CDK6/Cyclin D1 in HEK-293; format: binding; details: 10µM
Sequence of CDK6/Cyclin D1 (Q00534 whole entry): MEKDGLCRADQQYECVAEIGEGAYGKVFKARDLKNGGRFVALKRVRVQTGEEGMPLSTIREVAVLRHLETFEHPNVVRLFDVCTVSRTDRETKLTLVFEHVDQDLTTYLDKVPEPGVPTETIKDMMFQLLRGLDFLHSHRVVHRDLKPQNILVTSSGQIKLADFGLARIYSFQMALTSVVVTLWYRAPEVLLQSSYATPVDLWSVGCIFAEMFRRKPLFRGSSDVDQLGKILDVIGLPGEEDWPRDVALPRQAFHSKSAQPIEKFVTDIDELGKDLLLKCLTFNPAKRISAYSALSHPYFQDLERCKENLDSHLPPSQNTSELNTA
Sequence of CDK6/Cyclin D1 (P24385 whole entry partner): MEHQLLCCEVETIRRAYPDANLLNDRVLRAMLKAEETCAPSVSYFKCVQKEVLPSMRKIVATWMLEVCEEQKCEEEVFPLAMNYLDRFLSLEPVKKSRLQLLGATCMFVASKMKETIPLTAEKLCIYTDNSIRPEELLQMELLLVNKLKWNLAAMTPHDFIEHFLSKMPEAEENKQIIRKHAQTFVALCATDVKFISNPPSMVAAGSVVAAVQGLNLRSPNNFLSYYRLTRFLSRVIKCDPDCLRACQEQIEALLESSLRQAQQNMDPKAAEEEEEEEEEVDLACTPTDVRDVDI

[14] = target: T1, CDK11A/Cyclin L2 (Homo sapiens, UniProt Q9UQ88); test: NanoBRET live-cell target engagement, CDK11A-NanoLuc/Cyclin L2 in HEK-293; format: binding; details: 10µM
T1 sequence (Q9UQ88 1-783): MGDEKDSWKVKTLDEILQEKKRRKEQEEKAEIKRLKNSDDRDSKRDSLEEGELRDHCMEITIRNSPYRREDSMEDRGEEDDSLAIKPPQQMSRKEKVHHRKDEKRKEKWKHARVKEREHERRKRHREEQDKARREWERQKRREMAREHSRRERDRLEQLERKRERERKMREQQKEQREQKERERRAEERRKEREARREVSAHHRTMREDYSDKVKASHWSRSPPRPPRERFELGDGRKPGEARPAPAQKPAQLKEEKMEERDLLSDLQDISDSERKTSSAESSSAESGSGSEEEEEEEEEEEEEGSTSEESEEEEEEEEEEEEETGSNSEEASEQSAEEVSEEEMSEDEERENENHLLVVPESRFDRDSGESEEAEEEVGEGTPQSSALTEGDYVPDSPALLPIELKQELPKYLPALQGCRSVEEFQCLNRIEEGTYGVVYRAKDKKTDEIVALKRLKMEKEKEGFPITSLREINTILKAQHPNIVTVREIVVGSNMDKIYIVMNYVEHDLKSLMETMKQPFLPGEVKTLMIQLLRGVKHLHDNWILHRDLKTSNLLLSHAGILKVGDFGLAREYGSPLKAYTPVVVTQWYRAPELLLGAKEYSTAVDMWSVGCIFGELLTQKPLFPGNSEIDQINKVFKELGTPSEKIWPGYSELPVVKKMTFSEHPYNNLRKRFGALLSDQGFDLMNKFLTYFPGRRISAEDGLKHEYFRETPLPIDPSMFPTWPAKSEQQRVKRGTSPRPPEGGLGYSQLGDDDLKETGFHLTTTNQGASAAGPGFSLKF

[15] = target: CDK11B/Cyclin L2 (Homo sapiens, UniProt P21127); test: NanoBRET live-cell target engagement, CDK11B-NanoLuc/Cyclin L2 in HEK-293; format: binding; details: 10µM
[16] = target: CDK13/Cyclin K (Homo sapiens, UniProt Q14004); test: NanoBRET live-cell target engagement, CDK13-NanoLuc/Cyclin K in HEK-293; format: binding; details: 10µM
[17] = target: CDK4/Cyclin D1 (Homo sapiens, UniProt P11802); test: NanoBRET live-cell target engagement, NanoLuc-CDK4/Cyclin D1 in HEK-293; format: binding; details: 10µM
Sequence of CDK4/Cyclin D1 (P11802 whole entry): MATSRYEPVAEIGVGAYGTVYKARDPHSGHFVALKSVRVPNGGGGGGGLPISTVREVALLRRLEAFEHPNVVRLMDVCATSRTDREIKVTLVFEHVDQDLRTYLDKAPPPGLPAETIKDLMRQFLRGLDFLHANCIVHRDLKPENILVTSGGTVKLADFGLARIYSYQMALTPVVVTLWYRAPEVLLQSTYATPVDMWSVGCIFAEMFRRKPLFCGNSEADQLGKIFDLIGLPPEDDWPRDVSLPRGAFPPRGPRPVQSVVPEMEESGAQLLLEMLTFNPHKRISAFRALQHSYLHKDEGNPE
Sequence of CDK4/Cyclin D1 (P24385 whole entry partner): as the sequence (P24385 whole entry partner) above

[18] = target: CDK8/Cyclin C (Homo sapiens, UniProt P49336); test: NanoBRET live-cell target engagement, NanoLuc-CDK8/Cyclin C in HEK-293; format: binding; details: 10µM
Sequence of CDK8/Cyclin C (P49336 whole entry): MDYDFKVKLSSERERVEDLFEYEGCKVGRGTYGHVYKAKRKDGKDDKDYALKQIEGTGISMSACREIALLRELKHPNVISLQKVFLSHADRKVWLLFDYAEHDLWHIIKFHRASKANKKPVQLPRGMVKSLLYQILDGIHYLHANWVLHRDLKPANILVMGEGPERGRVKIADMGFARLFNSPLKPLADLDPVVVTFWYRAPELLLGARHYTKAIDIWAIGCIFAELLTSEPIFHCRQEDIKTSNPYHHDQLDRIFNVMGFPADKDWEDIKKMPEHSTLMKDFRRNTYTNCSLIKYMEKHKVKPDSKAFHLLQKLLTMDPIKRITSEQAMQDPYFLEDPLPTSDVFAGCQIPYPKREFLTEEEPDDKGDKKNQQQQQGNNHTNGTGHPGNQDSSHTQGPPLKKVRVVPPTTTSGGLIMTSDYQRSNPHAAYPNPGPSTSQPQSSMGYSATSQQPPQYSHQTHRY
Sequence of CDK8/Cyclin C (P24863 whole entry partner): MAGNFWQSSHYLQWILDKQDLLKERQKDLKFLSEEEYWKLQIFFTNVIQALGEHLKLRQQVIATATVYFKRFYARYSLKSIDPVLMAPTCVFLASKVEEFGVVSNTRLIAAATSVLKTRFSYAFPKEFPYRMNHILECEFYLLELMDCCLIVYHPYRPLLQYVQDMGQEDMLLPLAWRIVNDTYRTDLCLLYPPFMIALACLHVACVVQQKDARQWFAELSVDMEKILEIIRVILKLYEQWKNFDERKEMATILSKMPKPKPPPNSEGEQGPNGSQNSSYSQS

[19] = target: CDK17/Cyclin Y (Homo sapiens, UniProt Q00537); test: NanoBRET live-cell target engagement, CDK17-NanoLuc/Cyclin Y in HEK-293; format: binding; details: 10µM
[20] = target: CDK14/Cyclin Y (Homo sapiens, UniProt O94921); test: NanoBRET live-cell target engagement, CDK14-NanoLuc/Cyclin Y in HEK-293; format: binding; details: 10µM

Sequence of CDK19/Cyclin C (Q9BWU1 whole entry): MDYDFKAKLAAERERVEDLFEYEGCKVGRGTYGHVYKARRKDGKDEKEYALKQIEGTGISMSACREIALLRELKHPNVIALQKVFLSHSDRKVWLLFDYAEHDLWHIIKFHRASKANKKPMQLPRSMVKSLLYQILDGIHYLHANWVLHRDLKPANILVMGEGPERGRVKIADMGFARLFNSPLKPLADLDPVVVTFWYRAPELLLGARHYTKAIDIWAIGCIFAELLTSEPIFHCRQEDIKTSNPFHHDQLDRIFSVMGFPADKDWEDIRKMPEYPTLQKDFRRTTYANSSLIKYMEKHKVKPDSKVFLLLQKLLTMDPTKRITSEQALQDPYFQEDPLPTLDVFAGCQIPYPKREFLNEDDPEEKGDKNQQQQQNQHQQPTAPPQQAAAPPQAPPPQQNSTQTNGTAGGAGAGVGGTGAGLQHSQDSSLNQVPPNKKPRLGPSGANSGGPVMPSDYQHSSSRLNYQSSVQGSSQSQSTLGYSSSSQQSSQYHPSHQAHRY
Sequence of CDK19/Cyclin C (P24863 whole entry partner): as the sequence (P24863 whole entry partner) above

O=C1NC(=NCc2cccs2)S/C1=C\c1ccc2ncccc2c1 [RO-3306]
CDK19/C Inhibition at 10µM (%) ([1]; average of experiments): 19.5%
CDK19/C Inhibition at 10µM (%) ([1]; independent experiment 1): 15.2%
CDK19/C Inhibition at 10µM (%) ([1]; independent experiment 2): 23.8%
CDK3/E1 Inhibition at 10µM (%) ([2]; average of experiments): 74.0%
CDK3/E1 Inhibition at 10µM (%) ([2]; independent experiment 1): 51.6%
CDK3/E1 Inhibition at 10µM (%) ([2]; independent experiment 2): 96.3%
IC50 ([2]; independent experiment 1, read-out: CDK3/E1 IC50): 0.14 µM
IC50 ([2]; independent experiment 2, read-out: CDK3/E1 IC50): 0.28 µM
IC50 ([2]; independent experiment 3, read-out: CDK3/E1 IC50): 0.184 µM
IC50 ([2]; live HEK-293, 2 h, mean ± S.E.M. (n=3) or mean (n=2), read-out: IC50 for CDK/cyclin complexes, CDK3/E1): 0.2 µM
CDK9/K Inhibition at 10µM (%) ([3]; average of experiments): 29.2%
CDK9/K Inhibition at 10µM (%) ([3]; independent experiment 1): 10.0%
CDK9/K Inhibition at 10µM (%) ([3]; independent experiment 2): 48.5%
CDK5/CDK5R1 Inhibition at 10µM (%) ([4]; average of experiments): -1.8%
CDK5/CDK5R1 Inhibition at 10µM (%) ([4]; independent experiment 1): 10.9%
CDK5/CDK5R1 Inhibition at 10µM (%) ([4]; independent experiment 2): -14.5%
CDK1/E1 Inhibition at 10µM (%) ([5]; average of experiments): 81.7%
CDK1/E1 Inhibition at 10µM (%) ([5]; independent experiment 1): 78.1%
CDK1/E1 Inhibition at 10µM (%) ([5]; independent experiment 2): 85.3%
CDK12/K Inhibition at 10µM (%) ([6]; average of experiments): 10.6%
CDK12/K Inhibition at 10µM (%) ([6]; independent experiment 1): 8.2%
CDK12/K Inhibition at 10µM (%) ([6]; independent experiment 2): 13.0%
CDK10/L2 Inhibition at 10µM (%) ([7]; average of experiments): 22.6%
CDK10/L2 Inhibition at 10µM (%) ([7]; independent experiment 1): 6.5%
CDK10/L2 Inhibition at 10µM (%) ([7]; independent experiment 2): 38.7%
CDK7 Inhibition at 10µM (%) ([8]; average of experiments): 57.8%
CDK7 Inhibition at 10µM (%) ([8]; independent experiment 1): 37.4%
CDK7 Inhibition at 10µM (%) ([8]; independent experiment 2): 78.3%
CDK15/Y Inhibition at 10µM (%) ([9]; average of experiments): 22.3%
CDK15/Y Inhibition at 10µM (%) ([9]; independent experiment 1): 12.8%
CDK15/Y Inhibition at 10µM (%) ([9]; independent experiment 2): 31.8%
CDK18/Y Inhibition at 10µM (%) ([10]; average of experiments): 16.9%
CDK18/Y Inhibition at 10µM (%) ([10]; independent experiment 1): 3.1%
CDK18/Y Inhibition at 10µM (%) ([10]; independent experiment 2): 30.7%
CDK20/H Inhibition at 10µM (%) ([11]; independent experiment 1): 63.6%
CDK20/H Inhibition at 10µM (%) ([11]; independent experiment 2): 19.4%
CDK16/Y Inhibition at 10µM (%) ([12]; independent experiment 1): 47.1%
CDK16/Y Inhibition at 10µM (%) ([12]; independent experiment 2): 19.7%
CDK6/D1 Inhibition at 10µM (%) ([13]; average of experiments): 15.6%
CDK6/D1 Inhibition at 10µM (%) ([13]; independent experiment 1): 22.8%
CDK6/D1 Inhibition at 10µM (%) ([13]; independent experiment 2): 8.5%
CDK11a/L2 Inhibition at 10µM (%) ([14]; average of experiments): 25.4%
CDK11a/L2 Inhibition at 10µM (%) ([14]; independent experiment 1): 51.4%
CDK11a/L2 Inhibition at 10µM (%) ([14]; independent experiment 2): -0.5%
CDK11b/L2 Inhibition at 10µM (%) ([15]; average of experiments): 10.3%
CDK11b/L2 Inhibition at 10µM (%) ([15]; independent experiment 1): 7.5%
CDK11b/L2 Inhibition at 10µM (%) ([15]; independent experiment 2): 13.1%
CDK13/K Inhibition at 10µM (%) ([16]; average of experiments): 7.2%
CDK13/K Inhibition at 10µM (%) ([16]; independent experiment 1): 3.3%
CDK13/K Inhibition at 10µM (%) ([16]; independent experiment 2): 11.1%
CDK4/D1 Inhibition at 10µM (%) ([17]; average of experiments): -19.5%
CDK4/D1 Inhibition at 10µM (%) ([17]; independent experiment 1): 11.3%
CDK4/D1 Inhibition at 10µM (%) ([17]; independent experiment 2): -50.4%
CDK8/C Inhibition at 10µM (%) ([18]; average of experiments): 17.8%
CDK8/C Inhibition at 10µM (%) ([18]; independent experiment 1): 15.7%
CDK8/C Inhibition at 10µM (%) ([18]; independent experiment 2): 20.0%
CDK17/Y Inhibition at 10µM (%) ([19]; average of experiments): 40.0%
CDK17/Y Inhibition at 10µM (%) ([19]; independent experiment 1): 13.8%
CDK17/Y Inhibition at 10µM (%) ([19]; independent experiment 2): 66.1%
CDK14/Y Inhibition at 10µM (%) ([20]; average of experiments): 0.0648%
CDK14/Y Inhibition at 10µM (%) ([20]; independent experiment 1): 3.4%
CDK14/Y Inhibition at 10µM (%) ([20]; independent experiment 2): -3.3%
